target: Beta-2 adrenergic receptor (Homo sapiens, UniProt P07550); assay: DRUGMATRIX: Adrenergic beta2 radioligand binding (ligand: [3H] CGP-12177); assay type: cell membranes, Membrane; conditions: cho; Not Active = under 50% inhibition at 10 µM
Sequence (P07550 whole entry): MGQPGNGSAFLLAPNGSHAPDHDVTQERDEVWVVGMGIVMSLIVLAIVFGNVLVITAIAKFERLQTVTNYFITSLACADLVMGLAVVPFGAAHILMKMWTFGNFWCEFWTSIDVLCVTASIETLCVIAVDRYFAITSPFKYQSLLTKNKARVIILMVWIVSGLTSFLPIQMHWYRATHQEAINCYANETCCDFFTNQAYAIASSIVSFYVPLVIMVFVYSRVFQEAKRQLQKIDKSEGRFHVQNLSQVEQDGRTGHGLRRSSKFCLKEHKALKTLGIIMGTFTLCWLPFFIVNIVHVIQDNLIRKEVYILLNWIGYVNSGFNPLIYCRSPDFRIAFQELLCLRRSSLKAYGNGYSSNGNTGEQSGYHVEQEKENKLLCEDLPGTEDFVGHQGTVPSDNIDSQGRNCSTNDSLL

Structure (SMILES) | IC50
COc1ccc(CN(CCN(C)C)c2ccccn2)cc1 [PYRILAMINE] | Not Active
CNCCC=C1c2ccccc2CCc2ccccc21 [NORTRIPTYLINE] | Not Active
C=C(C)[C@@H]1[C@H]2OC(=O)[C@@H]1[C@]1(O)C[C@H]3O[C@]34C(=O)O[C@H]2[C@]14C [PICROTOXININ] | Not Active

target: T1, 5-hydroxytryptamine receptor 1A (Rattus norvegicus, UniProt P19327); assay type: cell membranes, CHO-K1, Membrane; conditions: cho-k1; also: in other assays of this panel Not Active means under 50% inhibition at 10 µM
T1 sequence (P19327 whole entry): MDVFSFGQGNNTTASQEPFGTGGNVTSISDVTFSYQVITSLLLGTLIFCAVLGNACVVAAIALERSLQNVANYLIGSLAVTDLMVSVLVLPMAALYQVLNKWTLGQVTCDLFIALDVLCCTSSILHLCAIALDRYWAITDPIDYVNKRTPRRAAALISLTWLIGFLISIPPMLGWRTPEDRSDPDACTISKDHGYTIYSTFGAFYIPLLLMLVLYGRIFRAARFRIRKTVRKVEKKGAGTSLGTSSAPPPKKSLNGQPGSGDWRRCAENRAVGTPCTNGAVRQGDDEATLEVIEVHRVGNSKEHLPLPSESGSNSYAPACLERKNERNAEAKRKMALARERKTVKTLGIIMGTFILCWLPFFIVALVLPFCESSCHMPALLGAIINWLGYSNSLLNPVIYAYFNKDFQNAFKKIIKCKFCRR

Structure (SMILES) | IC50
COc1ccc(CN(CCN(C)C)c2ccccn2)cc1 [PYRILAMINE] | Not Active
C=C(C)[C@@H]1[C@H]2OC(=O)[C@@H]1[C@]1(O)C[C@H]3O[C@]34C(=O)O[C@H]2[C@]14C [PICROTOXININ] | Not Active

same assay, conditions: read-out: IC50

Structure (SMILES) | IC50 [nM]
CNCCC=C1c2ccccc2CCc2ccccc21 [NORTRIPTYLINE] | 1870

same assay, conditions: read-out: Ki

Structure (SMILES) | Ki [nM]
CNCCC=C1c2ccccc2CCc2ccccc21 [NORTRIPTYLINE] | 1070

target: T2, Muscarinic acetylcholine receptor M2 (Homo sapiens, UniProt P08172); assay type: cell membranes, CHO-K1, Membrane; conditions: cho-k1; also: in other assays of this panel Not Active means under 50% inhibition at 10 µM
T2 sequence (P08172 whole entry): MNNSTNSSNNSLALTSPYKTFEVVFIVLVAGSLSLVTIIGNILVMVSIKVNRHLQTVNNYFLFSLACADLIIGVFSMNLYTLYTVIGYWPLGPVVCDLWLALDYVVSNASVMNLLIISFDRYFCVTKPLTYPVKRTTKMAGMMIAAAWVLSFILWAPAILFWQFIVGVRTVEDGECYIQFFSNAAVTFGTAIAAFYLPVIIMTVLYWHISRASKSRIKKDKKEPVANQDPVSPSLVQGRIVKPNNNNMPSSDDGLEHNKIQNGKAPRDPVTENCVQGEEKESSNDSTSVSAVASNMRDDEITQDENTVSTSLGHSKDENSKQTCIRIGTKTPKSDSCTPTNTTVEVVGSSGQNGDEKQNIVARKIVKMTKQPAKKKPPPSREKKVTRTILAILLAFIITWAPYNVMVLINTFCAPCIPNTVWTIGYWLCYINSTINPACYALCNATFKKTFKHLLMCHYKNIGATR

Structure (SMILES) | IC50
COc1ccc(CN(CCN(C)C)c2ccccn2)cc1 [PYRILAMINE] | Not Active
C=C(C)[C@@H]1[C@H]2OC(=O)[C@@H]1[C@]1(O)C[C@H]3O[C@]34C(=O)O[C@H]2[C@]14C [PICROTOXININ] | Not Active

same assay, conditions: read-out: IC50

Structure (SMILES) | IC50 [nM]
CNCCC=C1c2ccccc2CCc2ccccc21 [NORTRIPTYLINE] | 347

same assay, conditions: read-out: Ki

Structure (SMILES) | Ki [nM]
CNCCC=C1c2ccccc2CCc2ccccc21 [NORTRIPTYLINE] | 123

target: Cytochrome P450 2C9 (Homo sapiens, UniProt P11712); conditions: bti-tn-5b1-4; also: in other assays of this panel Not Active means under 50% inhibition at 10 µM
Sequence (P11712 whole entry): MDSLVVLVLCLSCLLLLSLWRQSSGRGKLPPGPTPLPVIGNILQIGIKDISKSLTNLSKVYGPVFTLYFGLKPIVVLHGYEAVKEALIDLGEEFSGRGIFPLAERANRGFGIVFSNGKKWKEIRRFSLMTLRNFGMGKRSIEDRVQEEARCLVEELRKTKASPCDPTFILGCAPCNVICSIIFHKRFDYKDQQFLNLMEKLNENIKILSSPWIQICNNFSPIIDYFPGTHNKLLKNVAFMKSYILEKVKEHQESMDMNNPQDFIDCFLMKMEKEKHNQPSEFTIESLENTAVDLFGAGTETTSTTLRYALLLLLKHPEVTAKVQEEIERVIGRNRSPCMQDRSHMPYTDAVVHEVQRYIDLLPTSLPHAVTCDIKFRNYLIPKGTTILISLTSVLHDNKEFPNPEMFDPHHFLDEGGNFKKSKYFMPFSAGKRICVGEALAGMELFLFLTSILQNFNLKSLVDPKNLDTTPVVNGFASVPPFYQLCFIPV

Structure (SMILES) | IC50 | Ki
COc1ccc(CN(CCN(C)C)c2ccccn2)cc1 [PYRILAMINE] | Not Active | Not Active
CNCCC=C1c2ccccc2CCc2ccccc21 [NORTRIPTYLINE] | Not Active | Not Active
C=C(C)[C@@H]1[C@H]2OC(=O)[C@@H]1[C@]1(O)C[C@H]3O[C@]34C(=O)O[C@H]2[C@]14C [PICROTOXININ] | Not Active | Not Active

tested on: not listed separately; assay: DRUGMATRIX: GABAA, Flunitrazepam, Central radioligand binding (ligand: [3H] Flunitrazepam); assay type: cell membranes, Rattus norvegicus, Wistar, Brain, Membrane; conditions: Not Active = under 50% inhibition at 10 µM

Structure (SMILES) | IC50 | Ki
COc1ccc(CN(CCN(C)C)c2ccccn2)cc1 [PYRILAMINE] | Not Active | Not Active
CNCCC=C1c2ccccc2CCc2ccccc21 [NORTRIPTYLINE] | Not Active | Not Active
C=C(C)[C@@H]1[C@H]2OC(=O)[C@@H]1[C@]1(O)C[C@H]3O[C@]34C(=O)O[C@H]2[C@]14C [PICROTOXININ] | Not Active | Not Active

tested on: not listed separately; assay: DRUGMATRIX: Phosphodiesterase PDE3 enzyme inhibition (substrate: [3H]cAMP + cAMP); assay type: tissue-based, Homo sapiens; conditions: platelet; Not Active = under 50% inhibition at 10 µM

Structure (SMILES) | IC50 | Ki
COc1ccc(CN(CCN(C)C)c2ccccn2)cc1 [PYRILAMINE] | Not Active | Not Active
CNCCC=C1c2ccccc2CCc2ccccc21 [NORTRIPTYLINE] | Not Active | Not Active
C=C(C)[C@@H]1[C@H]2OC(=O)[C@@H]1[C@]1(O)C[C@H]3O[C@]34C(=O)O[C@H]2[C@]14C [PICROTOXININ] | Not Active | Not Active

target: T3, Alpha-2C adrenergic receptor (Homo sapiens, UniProt P18825); assay: DRUGMATRIX: Adrenergic Alpha-2C radioligand binding (ligand: [3H] MK-912); assay type: cell membranes, Sf9, Membrane; conditions: sf9
T3 sequence (P18825 whole entry): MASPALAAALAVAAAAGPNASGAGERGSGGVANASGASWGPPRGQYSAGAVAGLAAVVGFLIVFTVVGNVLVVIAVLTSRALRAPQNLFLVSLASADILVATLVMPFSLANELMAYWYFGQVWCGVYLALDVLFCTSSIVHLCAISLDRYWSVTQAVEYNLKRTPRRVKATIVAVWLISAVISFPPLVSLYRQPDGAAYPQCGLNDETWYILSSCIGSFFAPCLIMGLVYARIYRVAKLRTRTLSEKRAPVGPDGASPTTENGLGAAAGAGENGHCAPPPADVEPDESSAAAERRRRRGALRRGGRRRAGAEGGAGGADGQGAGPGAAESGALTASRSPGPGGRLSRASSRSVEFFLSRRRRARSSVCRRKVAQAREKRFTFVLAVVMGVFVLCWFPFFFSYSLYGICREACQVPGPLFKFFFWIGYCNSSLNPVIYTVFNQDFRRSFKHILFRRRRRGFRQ

Structure (SMILES) | IC50
COc1ccc(CN(CCN(C)C)c2ccccn2)cc1 [PYRILAMINE] | Not Active
C=C(C)[C@@H]1[C@H]2OC(=O)[C@@H]1[C@]1(O)C[C@H]3O[C@]34C(=O)O[C@H]2[C@]14C [PICROTOXININ] | Not Active

target: Protein phosphatase 3 catalytic subunit alpha (Homo sapiens, UniProt Q08209); parameters: species or system Escherichia coli; conditions: not given;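 also: inhibition of calcineurin (PP2B) enzyme activity, measured with DiFMUP as the substrate; in other assays of this panel Not Active means under 50% inhibition at 10 µM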

Structure (SMILES) | IC50
COc1ccc(CN(CCN(C)C)c2ccccn2)cc1 [PYRILAMINE] | Not Active
CNCCC=C1c2ccccc2CCc2ccccc21 [NORTRIPTYLINE] | Not Active
C=C(C)[C@@H]1[C@H]2OC(=O)[C@@H]1[C@]1(O)C[C@H]3O[C@]34C(=O)O[C@H]2[C@]14C [PICROTOXININ] | Not Active

tested on: not listed separately; assay: DRUGMATRIX: Atrial Natriuretic Factor (ANF) radioligand binding (ligand: [125I] ANF (rat)); assay type: cell membranes, Cavia porcellus, Dunkin-Hartley, Adrenal gland, Membrane; conditions: Not Active = under 50% inhibition at 10 µM

Structure (SMILES) | IC50 | Ki
COc1ccc(CN(CCN(C)C)c2ccccn2)cc1 [PYRILAMINE] | Not Active | Not Active
CNCCC=C1c2ccccc2CCc2ccccc21 [NORTRIPTYLINE] | Not Active | Not Active
C=C(C)[C@@H]1[C@H]2OC(=O)[C@@H]1[C@]1(O)C[C@H]3O[C@]34C(=O)O[C@H]2[C@]14C [PICROTOXININ] | Not Active | Not Active

target: Cannabinoid receptor 1 (Homo sapiens, UniProt P21554); assay type: cell membranes, Membrane; conditions: chem-1; also: in other assays of this panel Not Active means under 50% inhibition at 10 µM
Sequence (P21554 whole entry): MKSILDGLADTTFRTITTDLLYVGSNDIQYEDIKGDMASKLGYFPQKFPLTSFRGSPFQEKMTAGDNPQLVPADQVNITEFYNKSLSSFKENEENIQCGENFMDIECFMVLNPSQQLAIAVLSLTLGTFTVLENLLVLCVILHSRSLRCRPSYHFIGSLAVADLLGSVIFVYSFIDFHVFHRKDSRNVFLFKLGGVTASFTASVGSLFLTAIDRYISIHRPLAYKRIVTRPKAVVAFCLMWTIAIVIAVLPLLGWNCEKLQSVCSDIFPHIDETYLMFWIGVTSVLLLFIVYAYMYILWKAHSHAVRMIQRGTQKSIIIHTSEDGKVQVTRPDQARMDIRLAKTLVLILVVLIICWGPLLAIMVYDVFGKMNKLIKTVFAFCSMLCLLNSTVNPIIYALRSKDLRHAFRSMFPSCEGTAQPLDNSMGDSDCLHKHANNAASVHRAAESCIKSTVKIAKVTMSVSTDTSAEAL

Structure (SMILES) | IC50
COc1ccc(CN(CCN(C)C)c2ccccn2)cc1 [PYRILAMINE] | Not Active
CNCCC=C1c2ccccc2CCc2ccccc21 [NORTRIPTYLINE] | Not Active
C=C(C)[C@@H]1[C@H]2OC(=O)[C@@H]1[C@]1(O)C[C@H]3O[C@]34C(=O)O[C@H]2[C@]14C [PICROTOXININ] | Not Active

tested on: not listed separately; assay: DRUGMATRIX: Calcium Channel Type L, Dihydropyridine radioligand binding (ligand: [3H] Nitrendipine); assay type: cell membranes, Rattus norvegicus, Wistar, Cerebral cortex, Membrane; conditions: Not Active = under 50% inhibition at 10 µM

Structure (SMILES) | IC50 | Ki
COc1ccc(CN(CCN(C)C)c2ccccn2)cc1 [PYRILAMINE] | Not Active | Not Active
CNCCC=C1c2ccccc2CCc2ccccc21 [NORTRIPTYLINE] | Not Active | Not Active
C=C(C)[C@@H]1[C@H]2OC(=O)[C@@H]1[C@]1(O)C[C@H]3O[C@]34C(=O)O[C@H]2[C@]14C [PICROTOXININ] | Not Active | Not Active

target: Kappa-type opioid receptor (Homo sapiens, UniProt P41145); assay: DRUGMATRIX: Opiate kappa (OP2, KOP) radioligand binding (ligand: [3H] Diprenorphine); assay type: cell membranes, HEK293, Membrane; conditions: hek293; Not Active = under 50% inhibition at 10 µM
Sequence (P41145 whole entry): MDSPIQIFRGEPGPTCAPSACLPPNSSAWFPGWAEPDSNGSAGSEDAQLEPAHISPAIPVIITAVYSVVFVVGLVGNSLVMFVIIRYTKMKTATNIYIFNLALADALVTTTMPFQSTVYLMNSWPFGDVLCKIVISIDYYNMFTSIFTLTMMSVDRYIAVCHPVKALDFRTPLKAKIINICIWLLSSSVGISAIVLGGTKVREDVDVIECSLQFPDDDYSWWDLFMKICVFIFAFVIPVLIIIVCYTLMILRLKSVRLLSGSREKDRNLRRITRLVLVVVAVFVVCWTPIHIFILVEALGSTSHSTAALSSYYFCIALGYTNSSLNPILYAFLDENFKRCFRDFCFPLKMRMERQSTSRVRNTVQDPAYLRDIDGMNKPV

Structure (SMILES) | IC50
COc1ccc(CN(CCN(C)C)c2ccccn2)cc1 [PYRILAMINE] | Not Active
CNCCC=C1c2ccccc2CCc2ccccc21 [NORTRIPTYLINE] | Not Active

target: Sodium-dependent noradrenaline transporter (Homo sapiens, UniProt P23975); assay: DRUGMATRIX: Norepinephrine Transporter radioligand binding (ligand: [125I] RTI-55); assay type: cell membranes, MDCK, Membrane; conditions: mdck; Not Active = under 50% inhibition at 10 µM
Sequence (P23975 whole entry): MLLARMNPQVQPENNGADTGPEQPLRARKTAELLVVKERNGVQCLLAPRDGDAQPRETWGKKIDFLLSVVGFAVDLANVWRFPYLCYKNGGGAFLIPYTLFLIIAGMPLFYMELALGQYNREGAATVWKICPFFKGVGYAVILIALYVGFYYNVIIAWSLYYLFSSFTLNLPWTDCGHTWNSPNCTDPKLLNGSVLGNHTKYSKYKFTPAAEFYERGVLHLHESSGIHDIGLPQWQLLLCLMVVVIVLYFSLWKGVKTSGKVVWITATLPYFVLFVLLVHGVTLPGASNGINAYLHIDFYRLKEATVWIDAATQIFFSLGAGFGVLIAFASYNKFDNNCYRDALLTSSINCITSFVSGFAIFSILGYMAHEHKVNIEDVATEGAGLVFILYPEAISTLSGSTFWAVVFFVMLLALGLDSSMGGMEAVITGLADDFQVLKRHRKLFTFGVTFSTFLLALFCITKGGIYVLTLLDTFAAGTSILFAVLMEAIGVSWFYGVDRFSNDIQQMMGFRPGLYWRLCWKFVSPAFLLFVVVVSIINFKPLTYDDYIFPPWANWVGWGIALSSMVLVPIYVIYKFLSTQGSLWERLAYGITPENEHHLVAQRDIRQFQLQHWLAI

Structure (SMILES) | IC50
C=C(C)[C@@H]1[C@H]2OC(=O)[C@@H]1[C@]1(O)C[C@H]3O[C@]34C(=O)O[C@H]2[C@]14C [PICROTOXININ] | Not Active

target: T4, Endothelin-1 receptor (Homo sapiens, UniProt P25101); assay type: cell membranes, Membrane; conditions: cho-k1; also: in other assays of this panel Not Active means under 50% inhibition at 10 µM
T4 sequence (P25101 whole entry): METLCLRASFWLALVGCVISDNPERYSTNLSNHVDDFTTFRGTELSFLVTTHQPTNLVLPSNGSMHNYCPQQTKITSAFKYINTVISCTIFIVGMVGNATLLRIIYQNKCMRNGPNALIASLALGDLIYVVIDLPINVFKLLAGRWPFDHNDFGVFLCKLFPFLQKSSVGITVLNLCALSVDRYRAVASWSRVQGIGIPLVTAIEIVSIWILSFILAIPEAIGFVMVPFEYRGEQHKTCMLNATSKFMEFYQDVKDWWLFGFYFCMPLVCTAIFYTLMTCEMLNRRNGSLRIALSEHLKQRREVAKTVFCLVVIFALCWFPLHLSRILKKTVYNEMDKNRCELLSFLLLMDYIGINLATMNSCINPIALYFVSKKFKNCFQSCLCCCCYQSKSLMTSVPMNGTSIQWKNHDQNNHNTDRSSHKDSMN

Structure (SMILES) | IC50
COc1ccc(CN(CCN(C)C)c2ccccn2)cc1 [PYRILAMINE] | Not Active
CNCCC=C1c2ccccc2CCc2ccccc21 [NORTRIPTYLINE] | Not Active
C=C(C)[C@@H]1[C@H]2OC(=O)[C@@H]1[C@]1(O)C[C@H]3O[C@]34C(=O)O[C@H]2[C@]14C [PICROTOXININ] | Not Active

— ChEMBL document CHEMBL1909046, “DrugMatrix in vitro pharmacology data”
